Source: patent publication US11926583B2, “Stabilized 1, 25-dihydroxyvitamin D2 and method of making same” (CYTOCHROMA INC., priority 2008, dated 2024)

Experiment: Accelerated stability testing at 60° C., purity by HPLC
Type: physicochemical
Conditions: for Purity (absolute %) / Purity (% of initial amount): At 60° C.
Procedure: The HPLC analysis can suitably follow the parameters in Table 2 below.
Samples of stabilized 1,25-dihydroxyvitamin D2 according to Example 1 and commercially-obtained 1,25-dihydroxyvitamin D2 (SAFC, Madison, Wis. USA) made by crystallization from methyl formate were placed in a 60° C. oven in several 2 ml amber vials with Teflon-lined caps. Samples were taken out at different time points and purity was checked by HPLC according to Example 1. The results are presented in Tables 3 and 4 below and in FIGS. 1 and 2. […] The stabilized material prepared according to the Example 1 will clearly have advantage when any heat is required during formulation.

Row | SMILES | Purity (absolute %) (0 h) [%] | Purity (% of initial amount) (4 h) [%] | Purity (absolute %) (4 h) [%] | Purity (% of initial amount) (8 h) [%] | Purity (absolute %) (8 h) [%] | Purity (% of initial amount) (16 h) [%] | Purity (absolute %) (16 h) [%] | Purity (% of initial amount) (24 h) [%] | Purity (absolute %) (24 h) [%] | Purity (% of initial amount) (48 h) [%] | Purity (absolute %) (48 h) [%] | Purity (% of initial amount) (72 h) [%] | Purity (absolute %) (72 h) [%] | Purity (% of initial amount) (Initial %) [%] | Stability compared to commercially available material containing residual methyl formate (60° C., up to 72 hours)
1 | C=C1/C(=C\C=C2/CCC[C@]3(C)[C@@H]([C@H](C)/C=C/[C@H](C)C(C)(C)O)CC[C@@H]23)C[C@@H](O)C[C@@H]1O [Commercial, 1,25-dihydroxyvitamin D2] | 96.80 | 98.33 | 95.18 | 98.12 | 94.98 | 97.82 | 94.69 | 97.09 | 93.98 | 96.97 | 93.86 | 96.92 | 93.82 | 100 | –
2 | C=C1/C(=C\C=C2/CCC[C@]3(C)[C@@H]([C@H](C)/C=C/[C@H](C)C(C)(C)O)CC[C@@H]23)C[C@@H](O)C[C@@H]1O [Example 1, 1,25-dihydroxyvitamin D2] | 99.40 | 99.98 | 99.38 | 100 | 99.42 | 99.93 | 99.33 | 100 | 99.42 | 99.90 | 99.31 | 99.50 | 98.89 | – | surprisingly more stable
